One assay addresses T1, Aurora A kinase (Homo sapiens, UniProt O14965).
T1 construct: purchased Upstate Biotech
T1 sequence (O14965 1-403): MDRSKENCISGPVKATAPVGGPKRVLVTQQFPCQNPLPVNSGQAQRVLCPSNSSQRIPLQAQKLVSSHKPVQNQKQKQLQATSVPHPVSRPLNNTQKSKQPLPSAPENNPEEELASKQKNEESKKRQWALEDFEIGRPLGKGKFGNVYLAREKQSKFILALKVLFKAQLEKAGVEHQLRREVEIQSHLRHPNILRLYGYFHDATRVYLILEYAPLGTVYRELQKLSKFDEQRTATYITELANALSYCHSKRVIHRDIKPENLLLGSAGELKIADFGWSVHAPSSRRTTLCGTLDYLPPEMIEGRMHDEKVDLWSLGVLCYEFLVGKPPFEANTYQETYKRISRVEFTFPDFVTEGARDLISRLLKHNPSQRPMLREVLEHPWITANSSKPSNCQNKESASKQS
As to the kind of experiment: Aurora A kinase assay (IMAP fluorescence polarization). To be noted: 10 μM ATP; rounded to 1 significant figure; read-out: Aur-A IC50. The class given is biochemical. The method, boiled down: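 Compounds (eight 3-fold dilutions, 2.5% DMSO final) were preincubated 5 min at room temperature with Aurora A kinase in buffer with 1 mM DTT. Reaction with 100 nM fluorescein-PKAtide and 10 μM ATP ran 45 min at room temperature, then was stopped with IMAP binding reagent; fluorescence polarization was read after 30 min.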
(In general: In fluorescence polarisation assays a small probe gives low polarisation when free and higher when bound to something large.)

The next assay concerns the target T2, Aurora B kinase (Homo sapiens, UniProt Q96GD4).
T2 construct: purchased BPS Bioscience
The assay is described as follows: Aurora B kinase assay (IMAP fluorescence polarization). Particulars: 10 μM ATP; rounded to 1 significant figure; read-out: Aur-B IC50. The class given is biochemical. In short, it runs like this:
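Reaction started with 100 nM fluorescein-labelled PKAtide and 10 μM ATP, run 45 min at room temperature, then stopped with IMAP binding reagent (1:400). After 30 min shaking at room temperature, fluorescence polarization read; run in duplicate with solvent control.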

Another assay has as its system p-H3 in HCT116 cells. As to the kind of experiment: Histone phosphorylation (p-H3) assay. The class given is cell-based. Particulars: Homo sapiens, HCT-116; HCT116 cells, 4 hr incubation; read-out: p-H3 IC50. The method, boiled down: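 HCT116 cells (2.5×10^4/well, attached overnight) treated 4 h with 8-point 3-fold compound dilutions at 0.5% DMSO. Lysates dot-blotted onto nitrocellulose and probed for p-H3 with β-actin on the same membrane, fluorescent secondary antibodies, Odyssey scan; duplicate wells.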

Assay [1] has as its system HCT116 (human colon carcinoma) cells. The assay is described as follows: HCT116 cytotoxicity assay (CellTiter-Glo). The class given is cell-based. To be noted: HCT-116, 72 h, cytotoxicity, three days culture, read-out: HCT116 IC50. A general note: In ATP-based viability assays light output follows the ATP content of the culture.
Assay [2] has as its system HL60 (human promyelocytic leukemia) cells. As to the kind of experiment: HL60 cytotoxicity assay (CellTiter-Glo). The class given is cell-based. To be noted: HL-60, 72 h, cytotoxicity, three days culture, read-out: HL60 IC50. The text has this:
(§1) The cell lines HL60 (human promyelocytic leukemia) and HCT116 (human colon carcinoma) were obtained from the American Type Culture Collection, Manassas, Va., U.S.A., and HUVEC-2 (human umbilical vein endothelial cells) from BD Biosciences, Bedford, Mass., U.S.A. Aurora A kinase was obtained from Upstate Biotech, Billerica, Mass., U.S.A.; Aurora B kinase from BPS Bioscience, San Diego, Calif., U.S.A.; and VEGFR2 kinase from Cell Signaling Technology, Danvers, Mass., U.S.A. The IMAP FP Screening Express kit was obtained from Molecular Devices, Sunnyvale, Calif., U.S.A.; the CellTiter-Glo assay kit from Promega Corporation, Madison, Wis., U.S.A.; and the Cellular DNA Cytometric Analysis Reagent Kit and BrdU labeling and detection kit from Roche Diagnostics Corporation, Indianapolis, Ind., U.S.A. All products were used in accordance with manufacturer's directions. Kinase inhibition assays and the histone phosphorylation (p-H3) assay were conducted in duplicate, and the cytotoxicity and HUVEC proliferation assays were conducted in triplicate, in each case with solvent control.
Log-phase cells were trypsinized, collected by centrifugation, and resuspended in a small volume of fresh medium, and the density of viable cells was determined following Trypan Blue staining. Cells were diluted in fresh media (1×10^4 cells/mL for HL60 and 4×10^4 cells/mL for HCT116 cells), the test compounds (concentrations between 0.1 μM and 200 μM, dissolved in DMSO, 50 μL) added immediately after dilution to achieve a final DMSO concentration of 0.5%, then the suspensions added at 150 μL/well to 96-well plates, and incubated overnight to allow attachment in the case of adherent cells. The cells were cultured for three days (about three doubling times). The cells were then collected by centrifugation, and 100 μL of the culture supernatant was replaced by the CellTiter-Glo reagent. After incubation for 15 minutes at room temperature, the plate was read with a luminometer.

The target of a further assay is T3, VEGFR2 kinase (Homo sapiens, UniProt P35968).
T3 construct: purchased Cell Signaling Technology
The assay is described as follows: VEGFR2 kinase assay. The class given is biochemical. To be noted: 6 μM ATP, 1 mM MnCl2; rounded to 1 significant figure. In short, it runs like this:
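VEGFR2 phosphorylates CSKtide with 6 μM ATP and 1 mM MnCl2 for 1 hr, otherwise following the Aurora A kinase protocol. Detection by IMAP fluorescence polarization, binding reagent diluted 1:1200 in 1:1 binding buffer A/B. Run in duplicate with solvent control.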

Assay [3] deals with HUVEC-2 (human umbilical vein endothelial cells). The assay is described as follows: HUVEC VEGF-dependent proliferation assay (BrdU). Particulars: VEGF (25 ng/mL)-dependent proliferation, read-out: HUVEC IC50. The class given is cell-based.
Excerpt: as §1
HUVEC-2 cells were seeded at 10^4 cells/well in a 96-well plate coated with 0.1% gelatin in complete medium. […] The compounds were serially diluted in DMSO, and added to the cells at 0.5% DMSO final concentration. After 2 hr, VEGF (25 ng/mL) was added; and after a further day, 5-bromo-2-deoxyuridine (BrdU, 10 μM) was added to label proliferating cells, and the cells incubated for another day. The plates were then processed using the Roche BrdU labeling and detection kit, and the VEGF-dependent antiproliferative activity of the compounds determined.

The values below come from patent US8129396B2, “2-[1H-benzimidazol-2(3H)-ylidene]-2-(pyrimidin-2-yl)acetamides and 2-[benzothiazol-2(3H)-ylidene]-2-(pyrimidin-2-yl)acetamides as kinase inhibitors” (Telik, Inc., priority 2008, dated 2012).

The structures appear in SMILES notation.

T3 sequence (P35968 20-1356): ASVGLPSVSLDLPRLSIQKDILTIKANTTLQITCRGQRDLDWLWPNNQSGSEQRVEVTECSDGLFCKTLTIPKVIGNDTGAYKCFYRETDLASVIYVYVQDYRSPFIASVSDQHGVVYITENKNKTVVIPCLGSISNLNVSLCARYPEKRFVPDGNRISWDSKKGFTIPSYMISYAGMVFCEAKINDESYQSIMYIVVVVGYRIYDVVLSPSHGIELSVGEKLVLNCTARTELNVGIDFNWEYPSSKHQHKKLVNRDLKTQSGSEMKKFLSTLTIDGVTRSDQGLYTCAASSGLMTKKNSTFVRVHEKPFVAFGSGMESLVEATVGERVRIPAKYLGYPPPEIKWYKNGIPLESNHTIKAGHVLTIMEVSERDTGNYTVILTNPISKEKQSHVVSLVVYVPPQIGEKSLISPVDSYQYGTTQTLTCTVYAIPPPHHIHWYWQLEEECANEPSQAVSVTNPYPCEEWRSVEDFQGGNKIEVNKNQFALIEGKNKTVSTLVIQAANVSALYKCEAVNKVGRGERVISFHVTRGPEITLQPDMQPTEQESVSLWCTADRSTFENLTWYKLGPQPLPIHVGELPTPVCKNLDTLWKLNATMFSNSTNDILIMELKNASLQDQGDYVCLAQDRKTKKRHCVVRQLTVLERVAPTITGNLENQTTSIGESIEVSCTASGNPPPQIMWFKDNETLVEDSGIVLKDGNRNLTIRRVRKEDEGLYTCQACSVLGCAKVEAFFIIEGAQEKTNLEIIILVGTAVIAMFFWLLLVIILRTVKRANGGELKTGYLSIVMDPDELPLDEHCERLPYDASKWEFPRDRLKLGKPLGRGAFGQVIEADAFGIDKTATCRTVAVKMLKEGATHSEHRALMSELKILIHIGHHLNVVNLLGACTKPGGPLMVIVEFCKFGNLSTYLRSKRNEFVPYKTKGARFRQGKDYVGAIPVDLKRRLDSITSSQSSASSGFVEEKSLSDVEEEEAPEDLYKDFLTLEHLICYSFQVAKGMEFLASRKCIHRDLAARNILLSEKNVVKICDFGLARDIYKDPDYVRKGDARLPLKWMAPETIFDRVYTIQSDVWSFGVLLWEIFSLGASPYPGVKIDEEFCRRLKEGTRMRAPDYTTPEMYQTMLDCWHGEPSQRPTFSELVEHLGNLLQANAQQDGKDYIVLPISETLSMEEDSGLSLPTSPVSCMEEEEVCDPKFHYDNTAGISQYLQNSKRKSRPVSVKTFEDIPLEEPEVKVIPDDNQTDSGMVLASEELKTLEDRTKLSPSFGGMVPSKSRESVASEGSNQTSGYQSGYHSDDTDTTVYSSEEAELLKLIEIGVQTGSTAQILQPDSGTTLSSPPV
T2 sequence (Q96GD4 whole entry): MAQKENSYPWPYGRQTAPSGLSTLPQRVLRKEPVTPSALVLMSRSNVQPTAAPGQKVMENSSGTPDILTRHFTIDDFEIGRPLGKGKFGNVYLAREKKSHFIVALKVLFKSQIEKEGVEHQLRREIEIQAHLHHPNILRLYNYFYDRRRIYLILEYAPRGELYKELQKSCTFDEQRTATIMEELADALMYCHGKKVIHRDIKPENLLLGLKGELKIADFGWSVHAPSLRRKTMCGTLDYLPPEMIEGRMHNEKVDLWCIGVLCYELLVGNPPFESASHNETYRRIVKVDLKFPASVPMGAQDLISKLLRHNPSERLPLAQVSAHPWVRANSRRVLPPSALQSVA

As usually defined, the IC50 is the concentration at which inhibition is half-maximal. For the compound `CCN(C(=O)CN1CCCCC1)c1ccc2c(c1)N/C(=C(/C(N)=O)c1nccc(C(F)(F)F)n1)N2` [Compound 146A], the IC50 turned out to be 20 nM at Aurora A kinase; 5 nM at Aurora B kinase; 200 nM in the assay on p-H3 in HCT116 cells; 400 nM in assay [1]; 800 nM in assay [2].

On to `NC(=O)/C(=C1\Nc2ccccc2S1)c1ncc(C(=O)NCCCN2CCOCC2)c(C(F)(F)F)n1` [Compound 131A], for which the IC50 at Aurora A kinase was determined as 90 nM; on Aurora B kinase it was 60 nM; at VEGFR2 kinase, 200 nM; in the assay with p-H3 in HCT116 cells it was 900 nM; in assay [1], 2000 nM; in assay [3] it was 800 nM.

As to `CN1CCN(Cc2ccc3c(c2)S/C(=C(/C(N)=O)c2nccc(C(F)(F)F)n2)N3)CC1` [Compound 93A], the IC50 is 20 nM on Aurora A kinase; 20 nM at Aurora B kinase; 10 nM against VEGFR2 kinase; 100 nM in the assay with p-H3 in HCT116 cells; 300 nM in assay [1]; 30 nM in assay [3].

Turning to `NC(=O)/C(=C1\Nc2ccc(C(=O)NC3CCNCC3)cc2S1)c1nccc(C(F)(F)F)n1` [Compound 71A], the IC50 on Aurora A kinase stood at 20 nM; at Aurora B kinase, 40 nM; against VEGFR2 kinase, 4 nM; with p-H3 in HCT116 cells, 200 nM; in assay [1], 200 nM; in assay [3], 90 nM.

For the compound `CN1CCN(CCC(=O)Nc2ccc3c(c2)N/C(=C(/C(N)=O)c2nccc(C(F)(F)F)n2)N3)CC1` [Compound 83A], the IC50 worked out at 6 nM on Aurora A kinase; 10 nM at Aurora B kinase; 60 nM on VEGFR2 kinase; 200 nM in the assay on p-H3 in HCT116 cells; 200 nM in assay [1]; 200 nM in assay [3].

Regarding `CN(CCN1CCCCC1)c1ccc2c(c1)S/C(=C(/C(N)=O)c1nccc(C(F)(F)F)n1)N2` [Compound 125A], the half-inhibitory concentration (IC50) at Aurora A kinase was 30 nM; on Aurora B kinase, 10 nM; at VEGFR2 kinase it was 20 nM; with p-H3 in HCT116 cells, 200 nM; in assay [1] it was 3000 nM; in assay [3] it was 600 nM.

On to `NC(=O)/C(=C1\Nc2ccc(NC(=O)[C@@H]3CCCN3)cc2N1)c1nccc(C(F)(F)F)n1` [Compound 80A], for which the IC50 at Aurora A kinase is 10 nM; at Aurora B kinase it was 4 nM; at VEGFR2 kinase, 50 nM; with p-H3 in HCT116 cells, 90 nM; in assay [1] it was 500 nM; in assay [3], 100 nM.

Regarding `Cc1cc2c(cc1C)NC(=C(C(N)=O)c1ncc(C(=O)NCCCN3CCOCC3)c(C(F)(F)F)n1)N2` [Compound 133A], the IC50 at Aurora A kinase turned out to be 40 nM; on Aurora B kinase, 10 nM; at VEGFR2 kinase it was 60 nM; in the assay on p-H3 in HCT116 cells it was 300 nM; in assay [1] it was 800 nM; in assay [3] it was 200 nM.

For `NC(=O)/C(=C1\Nc2ccc(C(=O)Nc3ccncc3)cc2N1)c1nccc(C(F)(F)F)n1` [Compound 44A], the IC50 worked out at 10 nM at Aurora A kinase; 10 nM on Aurora B kinase; 10 nM at VEGFR2 kinase; 200 nM in the assay with p-H3 in HCT116 cells; 200 nM in assay [1]; 80 nM in assay [3].

In the case of `NCC(=O)Nc1ccc2c(c1)SC(=C(C(N)=O)c1nccc(C(F)(F)F)n1)N2` (single isomer, unassigned) [Compound 76A, 2-{6-[(2-aminoacetyl)-amino]benzothiazol-2(3H)-ylidene}-2-(4-trifluoromethylpyrimidin-2-yl)acetamide], the IC50 worked out at 50 nM on Aurora A kinase; 5 nM at Aurora B kinase; 80 nM on VEGFR2 kinase; 200 nM with p-H3 in HCT116 cells; 700 nM in assay [1]; 100 nM in assay [3].

`NC(=O)/C(=C1\Nc2ccc(C(=O)N3CCC(N)CC3)cc2S1)c1nccc(C(F)(F)F)n1` [Compound 67A]: the IC50 was 10 nM at Aurora A kinase; 40 nM at Aurora B kinase; 4 nM against VEGFR2 kinase; 40 nM with p-H3 in HCT116 cells; 200 nM in assay [1]; 20 nM in assay [3].

As for `NC(=O)/C(=C1\Nc2cc(F)c(C(=O)NCCCN3CCOCC3)cc2S1)c1nccc(C(F)(F)F)n1` [Compound 50A], the IC50 at Aurora A kinase was 20 nM; on Aurora B kinase, 10 nM; on VEGFR2 kinase it was 20 nM; in the assay with p-H3 in HCT116 cells it was 400 nM; in assay [1], 300 nM; in assay [3] it was 90 nM.

For `NC(=O)/C(=C1\Nc2ccccc2S1)c1ncc(C(=O)NCCN2CCOCC2)c(C(F)(F)F)n1` [Compound 134A], the IC50 at Aurora A kinase was found to be 50 nM; at Aurora B kinase, 10 nM; at VEGFR2 kinase, 80 nM; with p-H3 in HCT116 cells it was 400 nM; in assay [1], 4000 nM; in assay [3], 600 nM.

Consider `NC(=O)/C(=C1\Nc2ccc(N3CCC(N4CCCCC4)CC3)cc2S1)c1nccc(C(F)(F)F)n1` [Compound 121A], for which the IC50 came to 30 nM at Aurora A kinase; 8 nM on Aurora B kinase; 20 nM at VEGFR2 kinase; 90 nM in the assay with p-H3 in HCT116 cells; 1000 nM in assay [1]; 900 nM in assay [3].

For the compound `CN1CCN(CCOc2ccc3c(c2)S/C(=C(/C(N)=O)c2nccc(C(F)(F)F)n2)N3)CC1` [Compound 114A], the IC50 on Aurora A kinase was found to be 40 nM; at Aurora B kinase, 20 nM; at VEGFR2 kinase it was 40 nM; with p-H3 in HCT116 cells, 50 nM; in assay [1] it was 600 nM; in assay [3] it was 40 nM.

In the case of `CN1CCN(c2ccc3c(c2)S/C(=C(/C(N)=O)c2nccc(C(F)(F)F)n2)N3)CC1` [Compound 120A], the IC50 stood at 30 nM on Aurora A kinase; 9 nM at Aurora B kinase; 2 nM against VEGFR2 kinase; 500 nM in the assay on p-H3 in HCT116 cells; 2000 nM in assay [1]; 2000 nM in assay [3].

On to `NC(=O)/C(=C1\Nc2cc(OCCN3CCOCC3)ccc2S1)c1nccc(C(F)(F)F)n1` [Compound 112A], for which the IC50 was 20 nM at Aurora A kinase; 20 nM at Aurora B kinase; 200 nM at VEGFR2 kinase; 900 nM with p-H3 in HCT116 cells; 2000 nM in assay [1]; 200 nM in assay [3].

For `CN1CCN(S(=O)(=O)c2ccc3c(c2)S/C(=C(/C(N)=O)c2nccc(C(F)(F)F)n2)N3)CC1` [Compound 126A], the IC50 at Aurora A kinase worked out at 20 nM; at Aurora B kinase, 20 nM; against VEGFR2 kinase, 70 nM; with p-H3 in HCT116 cells it was 2000 nM; in assay [1], 2000 nM; in assay [3] it was 30 nM.
